Assay results from ChEMBL document CHEMBL1150159, “Semisynthetic analogues of the microtubule-stabilizing agent discodermolide: preparation and biological activity” (J Nat Prod, 2002).

Key:
A549 = test: Cytotoxicity against human A549 cells; format: functional, cell-based
P388 = test: Cytotoxicity against mouse P388 cells; format: functional, cell-based

Row | Compound | IC50 (A549) | IC50 (P388)
1 | C=C/C=C\[C@H](C)[C@H](OC(N)=O)[C@@H](C)[C@H](O)[C@@H](C)C/C(C)=C\[C@H](C)[C@H]1OC(=O)C=C[C@@H]1C | 6770 nM | 3690 nM
2 | C=C/C=C\[C@H](C)[C@H](OC(N)=O)[C@@H](C)[C@H](OC(C)=O)[C@@H](C)C/C(C)=C\[C@H](C)[C@@H](OC(C)=O)[C@@H](C)/C=C\[C@H](C[C@@H]1OC(=O)C(C)=C[C@H]1C)OC(C)=O | > 7130 nM | 7080 nM
3 | CCCC[C@H](C)[C@H](OC(N)=O)[C@@H](C)[C@H](O)[C@@H](C)C/C(C)=C\[C@H](C)[C@@H](O)[C@@H](C)/C=C\[C@@H](O)C[C@@H]1OC(=O)[C@H](C)[C@@H](O)[C@H]1C | 8.4 nM | 10 nM
4 | CCCC[C@H](C)[C@H](OC(N)=O)[C@@H](C)[C@H](O)[C@@H](C)C/C(C)=C\[C@H](C)[C@@H](O)[C@@H](C)CC[C@@H](O)C[C@@H]1OC(=O)[C@H](C)[C@@H](O)[C@H]1C | 67.7 nM | 33.8 nM
5 | C=C/C=C\[C@H](C)[C@H](OC(N)=O)[C@@H](C)[C@H](O)[C@@H](C)C/C(C)=C\[C@H](C)[C@@H](OC(C)=O)[C@@H](C)/C=C\[C@@H](O)C[C@@H]1OC(=O)C(C)=C[C@H]1C | 3130 nM | 519 nM
6 | CCCC[C@H](C)[C@H](OC(N)=O)[C@@H](C)[C@H](OC(C)=O)[C@@H](C)C/C(C)=C\[C@H](C)[C@@H](OC(C)=O)[C@@H](C)CCCC[C@@H]1OC(=O)[C@H](C)[C@@H](OC(C)=O)[C@H]1C |  | > 7050 nM
7 | C=C/C=C\[C@H](C)[C@H](O)[C@@H](C)[C@H](O)[C@@H](C)C/C(C)=C\[C@H](C)[C@H]1OC(=O)C=C[C@@H]1C | > 12800 nM | > 12800 nM
8 | C=C/C=C\[C@H](C)[C@H](OC(N)=O)[C@@H](C)[C@H](OC(C)=O)[C@@H](C)C/C(C)=C\[C@H](C)[C@@H](OC(C)=O)[C@@H](C)/C=C\[C@@H](O)C[C@@H]1OC(=O)C(C)=C[C@H]1C | > 7590 nM | > 7590 nM
9 | CCCC[C@H](C)[C@H](OC(N)=O)[C@@H](C)[C@H](O)[C@@H](C)CC(C)C[C@H](C)[C@@H](O)[C@@H](C)CC[C@@H](O)C[C@@H]1OC(=O)[C@H](C)[C@@H](O)[C@H]1C (stereo partly drawn) | > 8290 nM | > 8290 nM
10 | C=C/C=C\[C@H](C)[C@H](OC(N)=O)[C@@H](C)[C@H](O)[C@@H](C)C/C(C)=C\[C@H](C)[C@@H](O)[C@@H](C)/C=C\[C@@H](O)C[C@@H]1OC(=O)C(C)=C[C@H]1C | 21.7 nM | 33.6 nM
11 | CCCC[C@H](C)[C@H](OC(N)=O)[C@@H](C)[C@H](O)[C@@H](C)C/C(C)=C\[C@H](C)[C@@H](O)[C@@H](C)CCCC[C@@H]1OC(=O)[C@H](C)[C@@H](O)[C@H]1C | 377 nM | 309 nM
12 | C=C/C=C\[C@H](C)[C@H](OC(N)=O)[C@@H](C)[C@H](OC(C)=O)[C@@H](C)C/C(C)=C\[C@H](C)[C@@H](O)[C@@H](C)/C=C\[C@@H](O)C[C@@H]1OC(=O)C(C)=C[C@H]1C | > 8100 nM | > 8100 nM
